Structures can show the parent of a compound that is named as a salt.
What was measured:
[1] = cited from earlier work
[2] = Safety / tolerability in the relative bioavailability study; format: in vivo, human; conditions: oral spray doses of 10 mg, 20 mg, 30 mg and single oral dose of 25 mg (1×25 mg tablet), healthy adult subjects, under fed conditions
Method: Assessments include evaluation of changes in orthostatic hypotension, oral irritation, vital sign assessments, 12-lead electrocardiogram (ECG), and clinical assessments.
After dosing, the following activities were completed: • Both objective and subjective oral irritation assessments were performed immediately after dosing and at one hour after dose administration. • A fast was maintained until at least four hours after dosing. During the study confinement period, fluid consumption resumed no sooner than one hour after dose administration. […]
• Blood sample collections were obtained as per the profile. • Supine and standing blood pressure and heart rate was measured at approximately 24 hours after each dose. • All subjects were evaluated for the presence of any adverse events prior to release from the study site. • Prior to release, subjects were evaluated to ensure it was safe for them to be released from the study site. • Subjects were released from the study site at approximately 24 hours after dose administration.

SMILES	absolute bioavailability ([1]; after oral administration (tablet)) [%]	mean steady state volume of distribution (Vss) ([1]; in vivo) [L]	tolerability [2]
CCCc1nn(C)c2c(=O)[nH]c(-c3cc(S(=O)(=O)N4CCN(C)CC4)ccc3OCC)nc12 [sildenafil, 1-[[3-(6,7-dihydro-1-methyl-7-oxo-3-propyl-1H-pyrazolo[4,3-d]pyrimidin-5-yl)-4-ethoxyphenyl]sulfonyl]-4-methylpiperazine]	41	105	–
CCCc1nn(C)c2c(=O)[nH]c(-c3cc(S(=O)(=O)N4CCN(C)CC4)ccc3OCC)nc12 [sildenafil citrate]	–	–	well tolerated
